Our source for the relative viability values is the supplement of paper PMC10307832.

What all share (assay): relative viability (nuclei count vs DMSO), 5 days (fraction); higher = more cells survive
Compound in the assay “BX 795 + Palbociclib”: O=C(NCCCNc1nc(Nc2cccc(NC(=O)N3CCCC3)c2)ncc1I)c1cccs1 [BX 795] + CC(=O)c1c(C)c2cnc(Nc3ccc(N4CCNCC4)cn3)nc2n(C2CCCC2)c1=O [Palbociclib] (partner 0.5 µM)
In a few lines:
(§1)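 Lung cancer cell lines were seeded in 1536-well plates and dosed by pin tool the next day, with either a single drug or a fixed anchor-drug dose combined with five library-drug doses (not always all listed) spaced in √10 steps. Five days later, one step fixed the cells and stained their nuclei (final 0.05% Triton X-100, 1% formaldehyde, 1 ug/ml Hoechst), and nuclei were counted on 4× images. Relative viability is the nuclei count in treated wells divided by the count in vehicle wells, and each value is the median of duplicate plates.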

Compound in the assay “BX 795 + Luminespib”: O=C(NCCCNc1nc(Nc2cccc(NC(=O)N3CCCC3)c2)ncc1I)c1cccs1 [BX 795] + CCNC(=O)c1noc(-c2cc(C(C)C)c(O)cc2O)c1-c1ccc(CN2CCOCC2)cc1 [Luminespib] (partner 0.01 µM)
In a few lines:
as §1

Compound in the assay “BX 795 + OSI-027”: O=C(NCCCNc1nc(Nc2cccc(NC(=O)N3CCCC3)c2)ncc1I)c1cccs1 [BX 795] + COc1cccc2cc(-c3nc([C@H]4CC[C@H](C(=O)O)CC4)n4ncnc(N)c34)[nH]c12 [OSI-027] (partner 0.5 µM)
Summed up:
as §1

Compound in the assay “BX 795 + Phenformin”: O=C(NCCCNc1nc(Nc2cccc(NC(=O)N3CCCC3)c2)ncc1I)c1cccs1 [BX 795] + N=C(N)NC(=N)NCCc1ccccc1 [Phenformin] (partner 250 µM)
Summed up:
as §1

Compound in the assay “BX 795 + Pictilisib”: O=C(NCCCNc1nc(Nc2cccc(NC(=O)N3CCCC3)c2)ncc1I)c1cccs1 [BX 795] + CS(=O)(=O)N1CCN(Cc2cc3nc(-c4cccc5[nH]ncc45)nc(N4CCOCC4)c3s2)CC1 [Pictilisib] (partner 1 µM)
In a few lines:
as §1

As for NCI-H2342, the relative viability in the assay with BX 795 + Palbociclib (first compound 0.04 µM) is 0.599; with BX 795 + Palbociclib (first compound 0.1265 µM), 0.518; in the assay with BX 795 + Palbociclib (first compound 0.4 µM), 0.47; with BX 795 + Palbociclib (first compound 1.265 µM) it was 0.498; with BX 795 + Luminespib (first compound 0.04 µM), 0.793; with BX 795 + Luminespib (first compound 0.1265 µM), 0.588. The relative viability in the assay with BX 795 + Luminespib (first compound 0.4 µM) was 0.79; with BX 795 + Luminespib (first compound 1.265 µM) it was 0.743; with BX 795 + OSI-027 (first compound 0.04 µM), 0.66; with BX 795 + OSI-027 (first compound 0.1265 µM) it was 0.569; with BX 795 + OSI-027 (first compound 0.4 µM), 0.591; with BX 795 + OSI-027 (first compound 1.265 µM), 0.637. Moreover, the relative viability came out at 0.643 with BX 795 + Phenformin (first compound 0.04 µM), 0.515 with BX 795 + Phenformin (first compound 0.1265 µM), 0.538 in the assay with BX 795 + Phenformin (first compound 0.4 µM) and 0.544 in the assay with BX 795 + Phenformin (first compound 1.265 µM).

Regarding NCI-H520, the relative viability with BX 795 + Palbociclib (first compound 0.04 µM) was 0.189; with BX 795 + Palbociclib (first compound 0.1265 µM) it was 0.263; in the assay with BX 795 + Palbociclib (first compound 0.4 µM), 0.187; in the assay with BX 795 + Palbociclib (first compound 1.265 µM), 0.177; in the assay with BX 795 + Luminespib (first compound 0.04 µM), 0.211; in the assay with BX 795 + Luminespib (first compound 0.1265 µM) it was 0.2. Moreover, the relative viability was 0.225 with BX 795 + Luminespib (first compound 0.4 µM); 0.277 with BX 795 + Luminespib (first compound 1.265 µM); 0.226 with BX 795 + OSI-027 (first compound 0.04 µM); 0.255 with BX 795 + OSI-027 (first compound 0.1265 µM); 0.19 with BX 795 + OSI-027 (first compound 0.4 µM); 0.201 with BX 795 + OSI-027 (first compound 1.265 µM). In addition, the relative viability amounted to 0.303 with BX 795 + Pictilisib (first compound 0.04 µM); 0.321 in the assay with BX 795 + Pictilisib (first compound 0.1265 µM); 0.279 in the assay with BX 795 + Pictilisib (first compound 0.4 µM); 0.28 with BX 795 + Pictilisib (first compound 1.265 µM); 0.699 with BX 795 + Phenformin (first compound 0.04 µM); 0.658 with BX 795 + Phenformin (first compound 0.1265 µM). The relative viability turned out to be 0.4 with BX 795 + Phenformin (first compound 0.4 µM) and 0.233 with BX 795 + Phenformin (first compound 1.265 µM).

Take NCI-H1975: the relative viability with BX 795 + Palbociclib (first compound 0.04 µM) stood at 0.758; in the assay with BX 795 + Palbociclib (first compound 0.1265 µM), 0.712; with BX 795 + Palbociclib (first compound 0.4 µM) it was 0.509; in the assay with BX 795 + Palbociclib (first compound 1.265 µM) it was 0.526; with BX 795 + Luminespib (first compound 0.04 µM) it was 0.228; with BX 795 + Luminespib (first compound 0.1265 µM), 0.427. Besides, the relative viability with BX 795 + Luminespib (first compound 0.4 µM) was 0.139; with BX 795 + Luminespib (first compound 1.265 µM), 0.183; with BX 795 + OSI-027 (first compound 0.04 µM), 0.83; in the assay with BX 795 + OSI-027 (first compound 0.1265 µM) it was 0.7; in the assay with BX 795 + OSI-027 (first compound 0.4 µM) it was 0.574; with BX 795 + OSI-027 (first compound 1.265 µM), 0.424. The relative viability was found to be 0.3 with BX 795 + Pictilisib (first compound 0.04 µM); 0.328 with BX 795 + Pictilisib (first compound 0.1265 µM); 0.26 with BX 795 + Pictilisib (first compound 0.4 µM); 0.224 in the assay with BX 795 + Pictilisib (first compound 1.265 µM); 0.409 with BX 795 + Phenformin (first compound 0.04 µM); 0.442 with BX 795 + Phenformin (first compound 0.1265 µM). The values for the relative viability with BX 795 + Phenformin (first compound 0.4 µM) and in the assay with BX 795 + Phenformin (first compound 1.265 µM) were 0.422 and 0.317, respectively.

In the case of NCI-H2009, the relative viability in the assay with BX 795 + Palbociclib (first compound 0.04 µM) is 0.24; with BX 795 + Palbociclib (first compound 0.1265 µM) it was 0.233; in the assay with BX 795 + Palbociclib (first compound 0.4 µM), 0.185; in the assay with BX 795 + Palbociclib (first compound 1.265 µM), 0.167; in the assay with BX 795 + Luminespib (first compound 0.04 µM) it was 1.02; with BX 795 + Luminespib (first compound 0.1265 µM), 0.932. Besides, the relative viability with BX 795 + Luminespib (first compound 0.4 µM) came out at 1.11; in the assay with BX 795 + Luminespib (first compound 1.265 µM) it was 0.83; with BX 795 + OSI-027 (first compound 0.04 µM), 0.612; with BX 795 + OSI-027 (first compound 0.1265 µM) it was 0.595; in the assay with BX 795 + OSI-027 (first compound 0.4 µM), 0.604; with BX 795 + OSI-027 (first compound 1.265 µM), 0.386. Moreover, the relative viability came to 0.777 with BX 795 + Pictilisib (first compound 0.04 µM); 0.744 with BX 795 + Pictilisib (first compound 0.1265 µM); 0.823 in the assay with BX 795 + Pictilisib (first compound 0.4 µM); 0.626 with BX 795 + Pictilisib (first compound 1.265 µM); 0.492 in the assay with BX 795 + Phenformin (first compound 0.04 µM); 0.447 in the assay with BX 795 + Phenformin (first compound 0.1265 µM). Moreover, the relative viability stood at 0.447 with BX 795 + Phenformin (first compound 0.4 µM) and 0.305 with BX 795 + Phenformin (first compound 1.265 µM).
